# Measurements as given in paper PMC6272185 (Molecules, 2015).
# Test system: not listed separately
# Experiment: Macrophage cytotoxicity, LDH release assay
# Format: cell-based, murine
# Details: mouse, RAW 264.7 macrophages stimulated with LPS; LPS-stimulated RAW 264.7, LDH release; mean ± SD, n = 3
row,Compound,IC50 [µM]
1,O=C(/C=C/c1ccc(F)cc1)c1ccc(Br)cc1 [Chalcone 9],> 328
2,COc1ccc(C(=O)/C=C/c2ccccc2Cl)cc1 [Chalcone 30],100 ± 5.1
3,O=C(/C=C/c1ccccc1)c1ccc(Br)cc1 [Chalcone 8],191 ± 5.2
4,O=C(/C=C/c1ccc(Cl)cc1)c1ccc(Br)cc1 [Chalcone 10],113.4 ± 0.5
5,COc1ccc(/C=C/C(=O)c2ccc(OC)cc2)cc1 [Chalcone 29],93.9 ± 4.9

# Test system: RAW 264.7 macrophages
# Experiment: Macrophage cytotoxicity, LDH release assay
# Format: cell-based, murine
# Details: LDH release
row,Compound,cytotoxicity profile
1,COc1ccc(C(=O)/C=C/c2ccccc2Cl)cc1 [Chalcone 30],worst cytotoxicity profiles
2,O=C(/C=C/c1ccc(Cl)cc1)c1ccc(Br)cc1 [Chalcone 10],worst cytotoxicity profiles
3,COc1ccc(/C=C/C(=O)c2ccc(OC)cc2)cc1 [Chalcone 29],worst cytotoxicity profiles

# Test system: M. tuberculosis strain H37Rv in RAW 264.7 macrophages
# Experiment: Intracellular growth of M. tuberculosis H37Rv in infected macrophages (CFU)
# Format: cell-based, Mycobacterium tuberculosis
# Details: Mycobacterium tuberculosis, H37RV, 96 h, infected RAW 264.7, MOI 1:1, 4 days, Figure 3C
# Protocol: (§1) RAW 264.7 macrophages were plated (1 × 10^5 cells/well) in antibiotic-free DMEM-F12 medium supplemented with 10% fetal bovine serum and incubated for 24 h. Prior to infection, mycobacterial suspensions were sonicated for 1 minute to disperse clumps and optical densities were adjusted to 0.1. The macrophage cultures were infected at a MOI of 1:1 (macrophage: bacterium). Phagocytosis was allowed to progress for 3 h. After 3 h, extracellular mycobacteria were removed by washing with PBS 1X and the infected cell monolayers were treated for 4 days with chalcone samples or rifampicin. Macrophage viability was monitored by LDH assay and was over 80% in all experiments. On day 4 after infection, cells were lysed cells with 1% saponin to release intracellular bacteria. Lysate aliquots were diluted 10-fold in PBS, plated in triplicates on 7H10 agar plates and incubated at 37 °C. After 21 days, total CFU were determined.
row,Compound,MIC50 [µM]
1,O=C(/C=C/c1ccc(F)cc1)c1ccc(Br)cc1 [Chalcone 9],12 ± 1.1
2,O=C(/C=C/c1ccccc1)c1ccc(Br)cc1 [Chalcone 8],13.5 ± 0.6

# Test system: RAW 264.7 macrophages infected with M. tuberculosis H37Rv
# Experiment: Toxicity for infected macrophages, LDH assay
# Format: cell-based, murine
# Details: Mus musculus, RAW264.7, 96 h; infected RAW 264.7, 4 days treatment; Figure 3D
# Protocol: Cytotoxic effects of chalcone samples on RAW 264.7 cell viability in cultures stimulated with LPS were determined using the LDH (lactate dehydrogenase) release assay as previously described. Cytoplasmic enzyme LDH release into cell culture supernatants was detected using a commercial LDH kit (Doles, GO, Brazil). Cell death was expressed as percentage of LDH release, which was calculated using the following formula: percentage of LDH release = 100 × (test LDH release − spontaneous release)/(maximum release − spontaneous release). The maximum release was determined following dissolution of cell monolayers using 1% (vol/vol) Triton X-100. The spontaneous release was determined in supernatants from cultures incubated in the presence of LPS and DMSO, used as a solvent for chalcone samples.
# as §1
row,Compound,IC50 [µM]
1,O=C(/C=C/c1ccc(F)cc1)c1ccc(Br)cc1 [Chalcone 9],> 321
2,O=C(/C=C/c1ccccc1)c1ccc(Br)cc1 [Chalcone 8],66.1 ± 1.5

# Test system: TNF-α production by LPS-stimulated RAW 264.7 macrophages
# Experiment: Inhibition of TNF-α production by LPS-stimulated macrophages (ELISA)
# Format: cell-based, murine
# Details: Mus musculus, RAW264.7; LPS (1 µg/mL)-stimulated RAW 264.7, 24 h; mean ± SD, n = 3; read-out: IC50 TNF-α
row,Compound,IC50 [µM]
1,O=C(/C=C/c1ccc(F)cc1)c1ccc(Br)cc1 [Chalcone 9],> 328
2,COc1ccc(C(=O)/C=C/c2ccccc2Cl)cc1 [Chalcone 30],> 367
3,O=C(/C=C/c1ccccc1)c1ccc(Br)cc1 [Chalcone 8],66.9 ± 4.5
4,O=C(/C=C/c1ccc(Cl)cc1)c1ccc(Br)cc1 [Chalcone 10],> 311
5,COc1ccc(/C=C/C(=O)c2ccc(OC)cc2)cc1 [Chalcone 29],> 373

# Test system: M. tuberculosis M299
# Experiment: microbe, parasite or virus in culture
# Format: cell-based, Mycobacterium tuberculosis
# Details: Mycobacterium tuberculosis, M299, 120 h
Compound,MIC50 [µM],MIC90 [µM]
O=C(/C=C/c1ccc(F)cc1)c1ccc(Br)cc1 [Chalcone 9],53.6 ± 1.9,313 ± 1.4
O=C(/C=C/c1ccccc1)c1ccc(Br)cc1 [Chalcone 8],10.2 ± 4.9,344.7 ± 0.4

# Test system: M. bovis BCG
# Experiment: microbe, parasite or virus in culture
# Format: cell-based, Mycobacterium bovis BCG
# Details: Mycobacterium tuberculosis variant bovis BCG, BCG, 168 h, read-out: MIC50 M. bovis BCG
row,Compound,MIC50 [µM]
1,O=C(/C=C/c1ccc(F)cc1)c1ccc(Br)cc1 [Chalcone 9],35.8 ± 3.9
2,COc1ccc(C(=O)/C=C/c2ccccc2Cl)cc1 [Chalcone 30],37.8 ± 6.4
3,O=C(/C=C/c1ccccc1)c1ccc(Br)cc1 [Chalcone 8],13.4 ± 4
4,O=C(/C=C/c1ccc(Cl)cc1)c1ccc(Br)cc1 [Chalcone 10],22.3 ± 6.3
5,COc1ccc(/C=C/C(=O)c2ccc(OC)cc2)cc1 [Chalcone 29],32.5 ± 5.4

# Same assay, conditions: Mycobacterium tuberculosis variant bovis BCG, BCG, 168 h, read-out: MIC90 M. bovis BCG
row,Compound,MIC90 [µM]
1,O=C(/C=C/c1ccc(F)cc1)c1ccc(Br)cc1 [Chalcone 9],309 ± 5.3
2,COc1ccc(C(=O)/C=C/c2ccccc2Cl)cc1 [Chalcone 30],329 ± 3.6
3,O=C(/C=C/c1ccccc1)c1ccc(Br)cc1 [Chalcone 8],33.7 ± 4.6
4,O=C(/C=C/c1ccc(Cl)cc1)c1ccc(Br)cc1 [Chalcone 10],288 ± 3.2
5,COc1ccc(/C=C/C(=O)c2ccc(OC)cc2)cc1 [Chalcone 29],339.5 ± 3.2

# Same assay, conditions: culture, 7 days, MTT
row,Compound,MIC90 M. bovis BCG [µM]
1,O=C(/C=C/c1ccccc1)c1ccc(Br)cc1 [Chalcone 8],33.7 ± 4.6

# Test system: NO production by LPS-stimulated RAW 264.7 macrophages
# Experiment: Inhibition of NO production by LPS-stimulated macrophages (Griess)
# Format: cell-based, murine
# Details: LPS (1 µg/mL)-stimulated RAW 264.7, 24 h; mean ± SD, n = 3; read-out: IC50 NO
row,Compound,IC50 [µM]
1,COc1ccc(/C=C/C(=O)c2ccc(OC)cc2)cc1 [Chalcone 29],13.1 ± 4.2

# Same assay, conditions: Mus musculus, RAW264.7, 24 h, LPS (1 µg/mL)-stimulated RAW 264.7, 24 h; mean ± SD, n = 3; read-out: IC50 NO
row,Compound,IC50 [µM]
1,O=C(/C=C/c1ccc(F)cc1)c1ccc(Br)cc1 [Chalcone 9],> 328
2,COc1ccc(C(=O)/C=C/c2ccccc2Cl)cc1 [Chalcone 30],23.9 ± 4.8
3,O=C(/C=C/c1ccccc1)c1ccc(Br)cc1 [Chalcone 8],46.4 ± 2.3
4,O=C(/C=C/c1ccc(Cl)cc1)c1ccc(Br)cc1 [Chalcone 10],68.9 ± 4.3

# Same assay, conditions: Mus musculus, RAW264.7, 24 h, read-out: IC50 NO, LPS (1 µg/mL)-stimulated RAW 264.7, 24 h; mean ± SD, n = 3
row,Compound,IC50 [µM]
1,COc1ccc(/C=C/C(=O)c2ccc(OC)cc2)cc1 [Chalcone 29],< 21

# Test system: M. tuberculosis H37Rv
# Experiment: microbe, parasite or virus in culture
# Format: cell-based, Mycobacterium tuberculosis
# Details: Mycobacterium tuberculosis, H37RV, 120 h
row,Compound,MIC90 [µM]
1,O=C(/C=C/c1ccc(F)cc1)c1ccc(Br)cc1 [Chalcone 9],252 ± 2.7
2,O=C(/C=C/c1ccccc1)c1ccc(Br)cc1 [Chalcone 8],326 ± 3.3

# Same assay, conditions: Mycobacterium tuberculosis, H37RV, 120 h; read-out: MIC50 M. tuberculosis H37Rv
row,Compound,MIC50 [µM]
1,O=C(/C=C/c1ccc(F)cc1)c1ccc(Br)cc1 [Chalcone 9],24.4 ± 4.5
2,O=C(/C=C/c1ccccc1)c1ccc(Br)cc1 [Chalcone 8],10.5 ± 3.8

# Same assay, conditions: Mycobacterium tuberculosis; Table 5; same values as M. tuberculosis H37Rv in Table 3; read-out: MIC50
row,Compound,MIC50 [µM]
1,O=C(/C=C/c1ccc(F)cc1)c1ccc(Br)cc1 [Chalcone 9],24.4 ± 4.5
2,O=C(/C=C/c1ccccc1)c1ccc(Br)cc1 [Chalcone 8],10.5 ± 3.8
